According to patent US7589077B2, “Antiviral nucleosides” (priority 2001, dated 2009):
Where two headings read alike, the source gives them in different places.

Assays:
whole human PBLs = test: Cell proliferation, whole human PBLs; assay type: cell-based; details: Table 1
HSV-1 (KOS) HSV-TK+ = HSV-1 (KOS) HSV-TK+ antiviral assay; assay type: cell-based, Herpes simplex virus type-1; details: Table 4
Protocol: (§1) Cytopathic effect (CPE) inhibition assays for HSV-1, HSV-2, HCMV and VZV were performed as follows: Low passage human foreskin fibroblasts (HFF) cells were seeded into 96 well tissue culture plates 24 h prior to use at a cell concentration of 2.5×10^4 cells per mL in 0.1 mL of minimal essential medium (MEM) supplemented with 10% fetal bovine serum (FBS). The cells were then incubated for 24 h at 37° C. in a CO2 incubator. After incubation, the medium was removed and 100 μL of MEM containing 2% FBS was added to all but the first row. In the first row, 125 μL of experimental drug was added in triplicate wells. Medium alone was added to both cell and virus control […]. After incubation, the medium was removed and 100 μl of MEM containing 2% FBS was added to all but the first row. Medium alone was added to both cell and virus control wells. 125 μl of Experimental drug was added in triplicate wells. The drug in the first row of wells was then diluted serially 1:5 throughout the remaining wells by transferring 25 μL using the Cetus Liquid Handling Machine. After dilution of drugs, 100 μL of the appropriate virus concentration was added to each well, excluding the cell control wells which received 100 μL of MEM. For HSY-1 and HSV-2 assays, the virus concentration utilized was 1000 PFU's per well. For CMV and VZV assays, the virus concentration added was 2500 PFU's per well. The plates were then incubated at 37° C. in a CO2 incubator for 3 days for HSV-1 and HSV-2, 10 days for VZV, or 14 days for CMV. After the incubation period, media was aspirated and the cells stained with a 0.1% crystal violet solution for 30 min. The stain was then removed and the plates were allowed to dry 24 h and then read on a Skatron Plate Reader at 620 nm.

HSV-2 (MS) = test: CPE inhibition assay HSV-2 (MS) in HFF cells; assay type: cell-based, Herpes simplex virus type-2; details: Table 4
Protocol: as §1

[1] = test system: duck hepatitis B virus (DHBV); test: DHBV DNA replication in primary duck hepatocytes (dot blot hybridization); assay type: cell-based
Protocol: A series of compounds were synthesized and assayed for activity against duck hepatitis B virus (DHBV). […] Test compounds were added to the hepatocyte cultures on day 2 and maintained in culture with media changed every second day until day 12. Cell were harvested at day 14 and lysed with buffer containing 1% SDS. DNA was isolated from the lysate and dot blot hybridization was performed using a DHBV (32P) DNA probe. […]
(§2) The compounds were assayed for a) their ability to inhibit DHBV DNA replication in duck hepatocytes, b) their ability to inhibit HBV DNA replication in HepG2 2.2.15 cells, c) the cell cytotoxicity in Vero cells, the cell viability in HFF cells, d) the cell proliferation in HFF cells, and e) the T cell proliferation (purified T cells, PHA stimulated). 3-TC was used as a control.

HSV-1 (E-377) = test: CPE inhibition assay HSV-1 (E-377) in HFF cells; assay type: cell-based, Herpes simplex virus type-1; details: Table 4
Protocol: as §1

HSV-1 (KOSSB) HSV-TK− = test: microbe, parasite or virus in culture; assay type: cell-based, Herpes simplex virus type-1; details: Table 4
Protocol: as §1, with “The” for “Cytopathic effect (CPE) inhibition assays for HSV-1, HSV-2, HCMV and VZV were performed as follows: Low passage human foreskin fibroblasts (HFF) cells were seeded into 96 well tissue culture plates 24 h prior to use at a cell concentration of 2.5×10^4 cells per mL in 0.1 mL of minimal essential medium (MEM) supplemented with 10% fetal bovine serum (FBS). The”

Epstein-Barr Virus (EBV) = test: EBV immunofluorescence assay in DAUDI cells (P3HR-1 strain); assay type: cell-based
Protocol: The immunofluorescence assay, using monoclonal antibodies, for Epstein-Barr Virus (EBV) was performed as follows: DAUDI cells were infected with the P3HR-1 strain of EBV and the test drug was added after adsorption (45 min. at 37° C.) and washing of the cell cultures. These cultures were then incubated for 2 days in complete medium to allow viral gene expression. Following the 48 h incubation period, the number of cells in each sample were counted and smears were made. Monoclonal antibodies to the different early antigen (EA) components and VCA were than added to the cells, incubated and washed. This was followed by the addition of a fluorescein conjugated rabbit anti mouse Ig antibodies. The number of fluorescence positive cells in the smears were counted and the total number of cells in the cultures positive for EA or VCA were then calculated and compared.

VZV (Ellen) = test: CPE inhibition assay VZV (Ellen) in HFF cells; assay type: cell-based, varicella zoster virus
Protocol: as §1

HCMV (AD169) = test: CPE inhibition assay HCMV (AD169) in HFF cells; assay type: cell-based, human cytomegalovirus; details: Table 4
Protocol: as §1

human HBV = test: HBV DNA replication in HepG2 2.2.15 cells; assay type: cell-based, hepatitis B virus; details: Table 3a; read-out: % Inhibition of human HBV DNA replication in HepG2 2.2.15 cells EC50
Protocol: The compounds were assayed for a) their ability to inhibit DHBV DNA replication in duck hepatocytes, b) their ability to inhibit HBV DNA replication in HepG2 2.2.15 cells, c) the cell cytotoxicity in Vero cells, the cell viability in HFF cells, d) the cell proliferation in HFF cells, and e) the T cell proliferation (purified T cells, PHA stimulated). 3-TC was used as a control. Additional compounds described below in the Preparative Examples section were also tested, and the results are shown in Tables 2-4 below. The reference numbers for the compounds are found in the Preparative Examples.

HFF cells = test: Cell viability in HFF cells (neutral red); assay type: cell-based, human
Protocol: Twenty-four hours prior to assay HFF cells were plated into 96 well plates at a concentration of 2.5×10^4 cells per well. […] The plates were incubated for 7 days in a CO2 incubator at 37° C. At this time the media/drug was aspirated and 200 μL/well of 0.01% neutral red in Dulbecco's Phosphate Buffered Saline (DPBS) was added. This was incubated in the CO2 incubator for 2 h, the dye was aspirated and the cells were washed using a Nunc Plate Washer. After removing the DPBS wash, […] of 50% EtOH: 1% glacial acetic acid in water was added. The plates were rotated for 15 min. and the optical densities were read at 550 nm on a plate reader.

CEM cells = test: Cell cytotoxicity in CEM cells; assay type: cell-based; details: Table 3a
Vero cells = test: Cell cytotoxicity in Vero cells; assay type: cell-based; details: Table 1
Protocol: as §2

Molecule | IC50 (whole human PBLs) | HSV-1 (KOS) HSV-TK+ EC50 (HSV-1 (KOS) HSV-TK+) | HSV-2 (MS) EC50 (HSV-2 (MS)) | EC50 (DHBV DNA replication in duck hepatocytes) ([1]; Table 1) | HSV-1 (E-377) EC50, μg/ml (HSV-1 (E-377)) | HSV-1 (KOSSB) HSV-TK− EC50 (HSV-1 (KOSSB) HSV-TK−) | EBV EC50 (Epstein-Barr Virus (EBV); Table 4) | VZV (Ellen) EC50 (VZV (Ellen); Table 4) | HCMV (AD-169) EC50 (HCMV (AD169)) | EC50 (human HBV) | CC50 (HFF cells; Table 3a, read-out: Cell viability HFF cells CC50) | CC50 (CEM cells) | EBV EC50 (Epstein-Barr Virus (EBV); Table 3a) | EBV EC90 (Epstein-Barr Virus (EBV); Table 3a, in parentheses) | VZV (Ellen) EC50 (VZV (Ellen); Table 3a) | CC50 (Vero cells) | CC50 (HFF cells; Table 1, read-out: Cell viability, HFF cells, CC50 μM) | % Inhibition of DHBV DNA replication in duck hepatocytes @10 μg/ml [1]
(5S,6S)-5-bromo-O^6-5′-cyclo-5,6-dihydro-3′-azido-3′-deoxythymidine [Compound R-1] | 34 µM | 10 to 25 µg/mL | 20 µg/mL | (EC50 = 0.035 μg/ml | 20 μg/ml | 1 to 10 µg/mL | 1.4 µg/mL | >100 µg/mL | 20 µg/mL | – | – | – | – | – | – | – | – | –
CCO[C@@H]1C(Cl)C(=O)NC(=O)N1[C@H]1C[C@H](F)[C@@H](CO)O1 (single isomer, unassigned; (+)) [RB-2] | – | – | – | – | – | – | – | – | – | 2.8 µM | > 330 µM | > 200 µM | 0.15 to 0.3 µg/mL | 9.8 µg/mL | 0.3 µg/mL | – | – | –
(5R,6R)5-fluoro-O^6-5′-cyclo-5,6-dihydro-3′-azido-3′-deoxythymidine [Compound R-14] | > 350 µM | >25 µg/mL | >100 µg/mL | – | >100 μg/ml | >50 µg/mL | <0.08 µg/mL | >100 µg/mL | >100 µg/mL | – | – | – | – | – | – | 100 to 200 µM | > 350 µM | 81.0%
